{"source": "patent US8999892B2", "about": "“Use of S-abscisic acid for improving fruit set and producing parthenocarpic fruits and as a growth inhibitor” (Globachem, priority 2004, dated 2015)", "type_in_all_cases": "in vivo", "key": {"[1]": {"test_system": "cherry trees, variety Summit", "test": "Improvement of fruit set in stone fruit, orchard spray trial 2004", "details": "2 g/ha sprayed one week after flowering", "source_text": "Experimental period: 2004 Stone fruit crops treated: cherry trees, variety Summit The fruit orchard was sprayed with S-ABA one week after flowering; the dose was 2 g/ha. For the control experiment, the same formulation, but without S-ABA, was used. The number of fruit trees per plot was 5."}, "[2]": {"test_system": "apple trees, variety Boskoop", "test": "Promoting fruit set, production of parthenocarpic fruits and inhibition of growth in pome fruit, orchard spray trial 2004", "details": "for Number of apples/tree / Number of unclosed buds/tree (crown tip excluded): evaluation 6 Jul. 2004", "source_text": "Experimental period: 2004 Pome fruit crops treated: apple trees, variety Boskoop The fruit orchard was sprayed on 23 April, that is, during full flower. A further plot was spayed on 20 May 2004. S-ABA was applied in a dose of 2 g/ha. For the control experiment, the same formulation, but with-out S-ABA, was used. The number of fruit trees per plot was 40. The evaluation on 6 Jul. 2004 provided the following results: The buds or shoots in the crown tip of the trees were not taken into account because increased shoot growth frequently occurs in these places due to intensive cutting measures. In general, the growth of shoots in the crown tip is stronger than in the other regions of the tree crown."}, "[3]": {"test_system": "apple trees, variety Jonagored", "test": "Promoting fruit set in pome fruit, orchard spray trial 2003", "details": "2 g/ha sprayed three weeks after full flower", "source_text": "Experimental period: 2003 Pome fruit crops treated: apple trees, variety Jonagored. The fruit orchard was sprayed on 9 May, that is, three weeks after full flower (18 April). S-ABA was applied in a dose of 2 g/ha. For the control experiment, the same formulation, but without S-ABA, was used. The number of fruit trees per plot was 10."}, "[4]": {"details": "2 g/ha sprayed 23 April (full flower)"}}, "data": [{"smiles": "CC(C=C[C@@]1(O)C(C)=CC(=O)CC1(C)C)=CC(=O)O", "note": "(stereo in doubt) [S-ABA, (S)-5-(1-hydroxy-2,6,6-trimethyl-4-oxo-2-cyclohexenyl)-3-methyl-cis/trans-2,4-pentanedienoic acid]", "values": [{"measurement": "Formation of parthenocarpic fruits", "setting": "[1]", "value": "Parthenocarpic fruits were not observed"}, {"measurement": "Increase in number of fruits compared to the control plot", "setting": "[1]", "value": "near doubling of the number of fruits"}, {"measurement": "Weight per cherry", "setting": "[1]", "value": "not significantly influenced"}, {"measurement": "Yield", "setting": "[1]; 5 trees per plot", "value": 25, "unit": "kg/tree"}, {"measurement": "Number of apples/tree", "setting": "[2]; 2 g/ha sprayed 20 May", "value": 42}, {"measurement": "Number of unclosed buds/tree (crown tip excluded)", "setting": "[2]; 2 g/ha sprayed 20 May", "value": 0}, {"measurement": "Number of apples/tree", "setting": "[2]; [4]", "value": 35.4}, {"measurement": "Number of unclosed buds/tree (crown tip excluded)", "setting": "[2]; [4]", "value": 1.66}, {"measurement": "Increase in total number of apples per tree as compared with the control", "setting": "[2]; plot treated 20 May", "value": "approximately 21%"}, {"measurement": "Closure of buds (inhibition of vegetative growth)", "setting": "[2]; plots treated with S-ABA, independently of the time of treatment", "value": "almost all buds were closed"}, {"measurement": "Effect on fruit set of treatment during flowering", "setting": "[2]; treatment during flowering (23 April)", "value": "not adversely affected"}, {"measurement": "Formation of parthenocarpic fruits", "setting": "[2]; trees treated with 2 g/ha", "value": "parthenocarpic, pipless fruits were formed"}, {"measurement": "Apples in grade 75-85 mm", "setting": "[3]", "value": 15.54, "unit": "kg"}, {"measurement": "Apples in grade A2++ (75-85 mm)", "setting": "[3]", "value": 9.62, "unit": "kg"}, {"measurement": "Increase in number of apples per tree as compared to the control", "setting": "[3]", "value": 17, "unit": "%"}, {"measurement": "Increase in yield (in kg) as compared to the control", "setting": "[3]", "value": 8, "unit": "%"}, {"measurement": "Increase in yield in the high grades", "setting": "[3]", "value": 84, "unit": "%"}, {"measurement": "Increase in yield of grade A2++ (optimal fruit color)", "setting": "[3]", "value": "near doubling of the yield"}, {"measurement": "Number of apples/tree", "setting": "[3]", "value": 129}, {"measurement": "Yield", "setting": "[3]; 10 trees per plot", "value": 33.37, "unit": "kg/tree"}]}]}
